System: SCW-arthritis rats
Experiment: BMD by DXA of femurs and tibias in SCW-arthritis rats
Format: in vivo, Lewis type rats
Details: 6 weeks
Source text: In this experiment performed and described herein, there were four groups of Lewis type rats, consisting of eight (8) animals in each group. Lewis type rats had experimental arthritis induced by a single intra-peritoneal injection of streptococcal cell wall antigen (SCW). This type of arthritis has an acute and chronic phase and affects mostly the distal joints in the hind limbs of the animals, and, less so, the knees and hips. Groups 1-3, inclusive, had inflammatory arthritis induced. The compound used in the experiment was used to supplement normal rat chow feed on a daily basis. Feed and water were unrestricted. Group I feed was supplemented with the compound shown in formula II, abbreviated as GlcNBu, at a dose of 200mg/kg/day. […] All the dissected femurs and tibiae were scanned with dual energy x-ray absorptiometry (DXA) were measured at the distal femur, and proximal tibia using a user defined region of interest (ROI). • Micro-CT imaging protocol. […] The reconstructed tibia images were analyzed with MicroView 2.0 software (GE Healthcare, London, ON) in two and three dimensions. • Three-dimensional trabecular bone measurements. […] On 3D analysis, the tissue volume (3D-TV, mm3) and trabecular bone volume (3D-BV, mm3) were measured directly, and the fractional trabecular bone volume (3D-BV/TV, %) was calculated. […]

CCCC(=O)N[C@H]1C(O)O[C@H](CO)[C@@H](O)[C@@H]1O (stereo partly drawn) [GlcNBu, N-butyryl-D-glucosamine]
BMD femurs and tibias, Group I (GlcNBu 200 mg) vs Group 3 (GlcNBu 20 mg) (200 mg/kg/day in feed): much greater
BMD differences between Group 1 (GlcNBu 200 mg) and other Groups (200 mg/kg/day): Statistical significance of the differences was achieved

Source: patent US20060046976A1, “Method for increasing the bone mineral density and bone micro-architecture or connectivity of a mammal using N-acylated glucosamines” (priority 2004, published 2006)
